Key:
Test in all cases: maximum observed lethal fraction; higher = more cell death
U2OS BAX/BAK1 DKO = test system: U2OS BAX/BAK1 DKO
U2OS BCL2L12-KO = test system: U2OS BCL2L12-KO
U2OS PTBP1-KO = test system: U2OS PTBP1-KO
U2OS = test system: U2OS
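Further: FLICK assay: SYTOX Green fluorescence of dead cells tracked over time after drugging in 96-well plates, with total cell counts taken from Triton X-100 lysed wells.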

COc1ccc(C[C@H]2NC[C@H](O)[C@H]2OC(C)=O)cc1 [Anisomycin]
maximum observed lethal fraction
Settings	0.316 µM	1 µM	3.16 µM	10 µM	31.6 µM	100 µM	316 µM
U2OS	0.277	0.456	0.711	0.845	0.888	0.879	0.903
U2OS BAX/BAK1 DKO	0.114	0.119	0.103	0.111	0.121	0.109	0.107
U2OS BCL2L12-KO	0.218	0.159	0.181	0.32	0.353	0.387	0.444
U2OS PTBP1-KO	0.174	0.177	0.239	0.337	0.426	0.403	0.408

CN(C)C(=O)c1cc2cnc(Nc3ccc(N4CCNCC4)cn3)nc2n1C1CCCC1 [Ribociclib]
maximum observed lethal fraction
Settings	0.01 µM	0.0316 µM	0.1 µM	0.316 µM	1 µM	3.16 µM	10 µM
U2OS	0.0675	0.0565	0.0602	0.0591	0.0629	0.0661	0.077
U2OS BAX/BAK1 DKO	0.0572	0.057	0.0609	0.0673	0.0658	0.0721	0.082
U2OS BCL2L12-KO	0.0551	0.0572	0.0587	0.0607	0.0645	0.07	0.0804
U2OS PTBP1-KO	0.0584	0.0595	0.064	0.0704	0.0696	0.0751	0.0787

Cc1[nH]c2ccccc2c1CCNCc1ccc(/C=C/C(=O)NO)cc1 [Panobinostat]
maximum observed lethal fraction
Settings	0.001 µM	0.00316 µM	0.01 µM	0.0316 µM	0.1 µM	0.316 µM	1 µM
U2OS	0.0735	0.0836	0.265	0.655	0.761	0.802	0.851
U2OS BAX/BAK1 DKO	0.0715	0.0768	0.0894	0.102	0.108	0.0953	0.0939
U2OS BCL2L12-KO	0.0774	0.0897	0.352	0.775	0.856	0.838	0.895
U2OS PTBP1-KO	0.0914	0.11	0.349	0.527	0.601	0.603	0.65

CC1(C)CCC(c2ccc(Cl)cc2)=C(CN2CCN(c3ccc(C(=O)NS(=O)(=O)c4ccc(N[C@H](CCN5CCOCC5)CSc5ccccc5)c(S(=O)(=O)C(F)(F)F)c4)cc3)CC2)C1 [ABT-263]
maximum observed lethal fraction
Settings	0.1 µM	0.316 µM	1 µM	3.16 µM	10 µM	31.6 µM	100 µM
U2OS	0.0623	0.0847	0.106	0.2	0.247	0.683	0.984
U2OS BAX/BAK1 DKO	0.0556	0.0535	0.0545	0.0548	0.0634	0.172	0.43
U2OS BCL2L12-KO	0.0718	0.0885	0.121	0.225	0.26	0.821	1
U2OS PTBP1-KO	0.0713	0.0786	0.0982	0.131	0.192	0.771	1

CC(=O)[C@]1(O)Cc2c(O)c3c(c(O)c2[C@@H](O[C@H]2C[C@H](N)[C@H](O)[C@H](C)O2)C1)C(=O)c1ccccc1C3=O [Idarubicin]
maximum observed lethal fraction
Settings	0.001 µM	0.00316 µM	0.01 µM	0.0316 µM	0.1 µM	0.316 µM	1 µM
U2OS	0.0637	0.0722	0.0707	0.166	0.666	0.792	0.604
U2OS BAX/BAK1 DKO	0.0756	0.0795	0.0849	0.0871	0.212	0.18	0.193
U2OS BCL2L12-KO	0.0766	0.088	0.0897	0.231	0.74	0.724	0.321
U2OS PTBP1-KO	0.077	0.0792	0.0832	0.2	0.633	0.589	0.305

C=CC(=O)Nc1ccc(C(=O)Nc2[nH]nc3c2CN(C(=O)N[C@H](CN(C)C)c2ccccc2)C3(C)C)cc1 [YKL-5-124]
maximum observed lethal fraction
Settings	0.0316 µM	0.1 µM	0.316 µM	1 µM	3.16 µM	10 µM	31.6 µM
U2OS	0.0634	0.0827	0.0923	0.161	0.221	0.274	0.461
U2OS BAX/BAK1 DKO	0.0674	0.0739	0.0839	0.0802	0.0829	0.0948	0.1
U2OS BCL2L12-KO	0.0697	0.0761	0.0812	0.0841	0.0923	0.115	0.49
U2OS PTBP1-KO	0.0724	0.0809	0.0854	0.0868	0.0884	0.1	0.252

CC1(C)CCC(CN2CCN(c3ccc(C(=O)NS(=O)(=O)c4ccc(NCC5CCOCC5)c([N+](=O)[O-])c4)c(Oc4cnc5[nH]ccc5c4)c3)CC2)=C(c2ccc(Cl)cc2)C1 [ABT-199]
maximum observed lethal fraction
Settings	0.1 µM	0.316 µM	1 µM	3.16 µM	10 µM	31.6 µM	100 µM
U2OS	0.0502	0.0518	0.0546	0.0609	0.0939	0.239	0.52
U2OS BAX/BAK1 DKO	0.0501	0.0536	0.0531	0.0558	0.0561	0.0846	0.0728
U2OS BCL2L12-KO	0.0643	0.0609	0.063	0.0712	0.114	0.39	0.692
U2OS PTBP1-KO	0.0644	0.0635	0.0617	0.0671	0.0741	0.211	0.517

CCN1CCN(Cc2ccc(Nc3ncc(F)c(-c4cc(F)c5nc(C)n(C(C)C)c5c4)n3)nc2)CC1 [Abemaciclib]
maximum observed lethal fraction
Settings	0.01 µM	0.0316 µM	0.1 µM	0.316 µM	1 µM	3.16 µM	10 µM
U2OS	0.0681	0.0675	0.0675	0.0855	0.376	0.314	0.851
U2OS BAX/BAK1 DKO	0.0682	0.0681	0.0721	0.0802	0.0972	0.0964	0.339
U2OS BCL2L12-KO	0.0701	0.071	0.073	0.0769	0.211	0.457	0.889
U2OS PTBP1-KO	0.0734	0.0787	0.081	0.0922	0.161	0.257	0.739

CN(C)C/C=C/C(=O)Nc1ccc(C(=O)N2CCC[C@@H](Nc3ncc(Cl)c(-c4c[nH]c5ccccc45)n3)C2)cc1 [THZ531]
maximum observed lethal fraction
Settings	0.01 µM	0.0316 µM	0.1 µM	0.316 µM	1 µM	3.16 µM	10 µM
U2OS	0.049	0.0521	0.0575	0.271	0.325	0.46	0.923
U2OS BAX/BAK1 DKO	0.061	0.0622	0.0635	0.0888	0.105	0.0957	0.188
U2OS BCL2L12-KO	0.0636	0.0649	0.0776	0.465	0.359	0.489	0.903
U2OS PTBP1-KO	0.0612	0.0612	0.0684	0.17	0.346	0.314	0.836

O=C(CCCCCCC(=O)Nc1ccccc1)NO [Vorinostat]
maximum observed lethal fraction
Settings	0.1 µM	0.316 µM	1 µM	3.16 µM	10 µM	31.6 µM	100 µM
U2OS	0.0571	0.0602	0.0901	0.458	0.659	0.778	0.811
U2OS BAX/BAK1 DKO	0.0548	0.0545	0.0635	0.0731	0.0736	0.081	0.084
U2OS BCL2L12-KO	0.0673	0.0704	0.185	0.586	0.804	0.824	0.899
U2OS PTBP1-KO	0.0673	0.0682	0.0906	0.316	0.481	0.558	0.513

COc1cc([C@@H]2c3cc4c(cc3[C@@H](O[C@@H]3O[C@@H]5CO[C@@H](c6cccs6)O[C@H]5[C@H](O)[C@H]3O)[C@H]3COC(=O)[C@H]23)OCO4)cc(OC)c1O [Teniposide]
maximum observed lethal fraction
Settings	0.0316 µM	0.1 µM	0.316 µM	1 µM	3.16 µM	10 µM	31.6 µM
U2OS	0.0732	0.0749	0.0834	0.373	0.714	0.804	0.867
U2OS BAX/BAK1 DKO	0.0788	0.0806	0.0807	0.0902	0.106	0.205	0.299
U2OS BCL2L12-KO	0.0736	0.0745	0.0806	0.355	0.728	0.801	0.968
U2OS PTBP1-KO	0.079	0.0821	0.0892	0.383	0.686	0.763	0.815

CN1CC[C@H](c2c(O)cc(O)c3c(=O)cc(-c4ccccc4Cl)oc23)[C@H](O)C1 [Flavopiridol]
maximum observed lethal fraction
Settings	0.01 µM	0.0316 µM	0.1 µM	0.316 µM	1 µM	3.16 µM	10 µM
U2OS	0.0575	0.0639	0.486	0.528	0.552	0.501	0.356
U2OS BAX/BAK1 DKO	0.0607	0.0712	0.208	0.0919	0.093	0.092	0.0925
U2OS BCL2L12-KO	0.0552	0.0619	0.1	0.279	0.298	0.295	0.249
U2OS PTBP1-KO	0.0606	0.067	0.099	0.198	0.282	0.247	0.198

COC(=O)C[C@](O)(CCCC(C)(C)O)C(=O)O[C@@H]1C(OC)=C[C@]23CCCN2CCc2cc4c(cc2[C@H]13)OCO4 [Homoharringtonine]
maximum observed lethal fraction
Settings	0.01 µM	0.0316 µM	0.1 µM	0.316 µM	1 µM	3.16 µM	10 µM
U2OS	0.0607	0.0942	0.296	0.395	0.578	0.692	0.722
U2OS BAX/BAK1 DKO	0.0663	0.099	0.0992	0.106	0.112	0.102	0.106
U2OS BCL2L12-KO	0.0701	0.0909	0.0937	0.102	0.0962	0.115	0.21
U2OS PTBP1-KO	0.0765	0.165	0.0974	0.109	0.186	0.184	0.197

CC[C@@]1(O)C(=O)OCc2c1cc1n(c2=O)Cc2cc3ccccc3nc2-1 [Camptothecin]
maximum observed lethal fraction
Settings	0.01 µM	0.0316 µM	0.1 µM	0.316 µM	1 µM	3.16 µM	10 µM
U2OS	0.0607	0.0661	0.0732	0.0916	0.379	0.625	0.786
U2OS BAX/BAK1 DKO	0.0607	0.0659	0.0708	0.0816	0.0795	0.0879	0.0915
U2OS BCL2L12-KO	0.0758	0.083	0.0852	0.101	0.307	0.664	0.8
U2OS PTBP1-KO	0.0712	0.0841	0.0812	0.0849	0.107	0.295	0.328

NC1(C(=O)N[C@@H](CCO)c2ccc(Cl)cc2)CCN(c2nc[nH]c3nccc2-3)CC1 [Capivasertib]
maximum observed lethal fraction
Settings	0.0316 µM	0.1 µM	0.316 µM	1 µM	3.16 µM	10 µM	31.6 µM
U2OS	0.0687	0.066	0.0671	0.0702	0.0868	0.109	0.201
U2OS BAX/BAK1 DKO	0.0665	0.0661	0.0653	0.0697	0.074	0.078	0.0858
U2OS BCL2L12-KO	0.0788	0.0816	0.0788	0.0844	0.0929	0.108	0.236
U2OS PTBP1-KO	0.0937	0.0911	0.0962	0.0997	0.111	0.132	0.22

O=C(O)C1(C(=O)O)CCC1.[NH2-].[NH2-].[Pt+2] [Carboplatin]
maximum observed lethal fraction
Settings	0.316 µM	1 µM	3.16 µM	10 µM	31.6 µM	100 µM	316 µM
U2OS	0.0493	0.052	0.0533	0.0546	0.056	0.0693	0.517
U2OS BAX/BAK1 DKO	0.0602	0.0593	0.0612	0.0614	0.0671	0.0722	0.0825
U2OS BCL2L12-KO	0.0652	0.0616	0.0672	0.0691	0.0714	0.0762	0.342
U2OS PTBP1-KO	0.0634	0.0611	0.0647	0.0661	0.0674	0.0762	0.54
